The record followed here is patent publication US4150138A, “Method of reducing blood pressure with thiourea derivatives and guanidine derivatives” (Hoffmann-La Roche Inc., priority 1978, dated 1979).

Data set [1] has as its system genetically or deoxycorticosterone acetate/sodium chloride fed hypertensive rats. Briefly: Anti-hypertensive activity in hypertensive rats (indirect systolic blood pressure from the tail, heart rate). The data set is classed as in vivo, rat (Charles River male). The conditions noted are these: 10 mg/kg p.o., 6 hours after administration. The protocol:
For example, Doca-Na hypertension is induced in Charles River male rats weighing 170-210 grams by unilateral nephrectomy followed by subcutaneous implantation of a 25 mg. deoxycorticosterone acetate pellet. Animals are placed in individual cages and receive 0.9% sodium chloride solution and rat chow diet ad libitum. Two weeks are allowed to elapse from the time of surgery for development of hypertension, i.e., systolic blood pressure above 150 mm Hg. Systolic blood pressure is measured indirectly from the tail of unanesthetized rats (restrained in holders heated for 5-10 minutes at 37°-38° C.) using a pneumatic pulse transducer (piezo-electric crystal and occluding cuff). The transducer and occluding cuff are coupled to a two-channel recorder. Control readings are taken prior to drug and at 1, 3, 6 and 24 hours post-drug. All test compounds are prepared in acacia solution (5%) and are orally administered to the test animals.

Data set [2] is described as follows: Acute toxicity (LD50) in the mouse. Conditions: in vivo.
In data set [3] the test system is tetrabenazine-induced ptosis in mice. Briefly: Antidepressant activity: prevention of tetrabenazine-induced ptosis in mice. The format is in vivo. Conditions: Mus musculus, ip, 1 h, tetrabenazine (normally 150 mg/kg) i.p. one hour after test compound, ptosis read one hour later, read-out: ED50 (dose at which ptosis is prevented in 3/6 of the mice). The protocol: The compounds of formulas I and II have central nervous system activity, including antidepressant activity. […] For example, six mice are treated with the test compound. One hour later a ptosis-inducing dose of tetrabenazine (normally 150 mg/kg) is given intraperitoneally. Ptosis is read one hour after the tetrabenazine injection. The ED50 is the dose at which ptosis is prevented in 3/6 of the mice. […] The ED50 is calculated by the method of Behrens. Arch. Exp. Path. & Pharm. 140, 237 (1929).

SMILES strings stand for the structures. Read-outs that look alike come from different tables or passages of the source. Bounds are passed on as bounds.

On to `NCCNC(=S)Nc1cccc(Cl)c1Cl` [1-(2-aminoethyl)-3-(2,3-dichlorophenyl)thiourea], for which, in data set [1], the “decrease in the blood pressure” value is 51 mm/Hg and the “decrease in the heart rate” value is recorded as 95 beats/minutes. The LD50 in data set [2] (ip, read-out: LD50 i.p.) stood at 450 mg/kg. In addition, in data set [2] (po, read-out: LD50 p.o.), the 50% lethal dose (LD50) is over 1000 mg/kg.
For the compound `NCCNC(=S)Nc1c(Cl)cccc1Cl` [1-(2-aminoethyl)-3-(2,6-dichlorophenyl)thiourea], in data set [3], the ED50 was 5.7 mg/kg. Besides, in data set [1], the “decrease in the blood pressure” value is given as 73 mm/Hg. In addition, the “decrease in the heart rate” value in data set [1] was determined as 81 beats/minutes. In addition, the 50% lethal dose (LD50) in data set [2] (ip, read-out: LD50 i.p.) is 450 to 550 mg/kg; in data set [2] (po, read-out: LD50 p.o.), 750 to 775 mg/kg.
